Test results reported in US10501461B2, “Tyrosine amide derivatives as Rho-kinase inhibitors” (CHIESI FARMACEUTICI S.P.A., priority 2017, dated 2019).

Key:
[1] = target: Rho kinase 1 (ROCK-I) (Homo sapiens, UniProt Q13464); test: In vitro Rho kinase inhibitory activity assay (ADP-Glo), Rho kinase 1; type: biochemical; conditions: 10 μM ATP, 25° C., expressed as range of activity
Experimental: (§1) The effectiveness of compounds of the present invention to inhibit Rho kinase activity can be determined in a 10 μl assay containing 40 mM Tris pH7.5, 20 mM MgCl2 0.1 mg/ml BSA, 50 μM DTT and 2.5 μM peptide substrate (Myelin Basic Protein) using an ADP-Glo kit (Promega). Compounds were dissolved in DMSO such that the final concentration of DMSO was 1% in the assay. All reactions/incubations are performed at 25° C. Compound (2 ul) and either Rho kinase 1 or 2 (4 μl) were mixed and incubated for 30 mins. Reactions were initiated by addition of ATP (4 μl) such that the final concentration of ATP in the assay was 10 μM. After a 1 hour incubation 10 μl of ADP-Glo Reagent was added and after a further 45 minute incubation 20 ul of Kinase Detection Buffer was added and the mixture incubated for a further 30 minutes. The luminescent signal was measured on a luminometer. […] Compounds were tested in dose-response format and the inhibition of kinase activity was calculated at each concentration of compound. To determine the IC50 (concentration of compound required to inhibit 50% of the enzyme activity) data were fit to a plot of % inhibition vs Log10 compound concentration using a sigmoidal fit with a variable slope and fixing the maximum to 100% and the minimum to 0%. To determine the Ki values the Cheng-Prusoff equation was utilized (Ki=IC50/(1+[S]/Km).

[2] = target: Rho kinase 2 (ROCK-II) (Homo sapiens, UniProt O75116); test: In vitro Rho kinase inhibitory activity assay (ADP-Glo), Rho kinase 2; type: biochemical; conditions: 10 μM ATP, 25° C., expressed as range of activity
Experimental: as §1

Chain of Rho kinase 2 (ROCK-II) (O75116 whole entry): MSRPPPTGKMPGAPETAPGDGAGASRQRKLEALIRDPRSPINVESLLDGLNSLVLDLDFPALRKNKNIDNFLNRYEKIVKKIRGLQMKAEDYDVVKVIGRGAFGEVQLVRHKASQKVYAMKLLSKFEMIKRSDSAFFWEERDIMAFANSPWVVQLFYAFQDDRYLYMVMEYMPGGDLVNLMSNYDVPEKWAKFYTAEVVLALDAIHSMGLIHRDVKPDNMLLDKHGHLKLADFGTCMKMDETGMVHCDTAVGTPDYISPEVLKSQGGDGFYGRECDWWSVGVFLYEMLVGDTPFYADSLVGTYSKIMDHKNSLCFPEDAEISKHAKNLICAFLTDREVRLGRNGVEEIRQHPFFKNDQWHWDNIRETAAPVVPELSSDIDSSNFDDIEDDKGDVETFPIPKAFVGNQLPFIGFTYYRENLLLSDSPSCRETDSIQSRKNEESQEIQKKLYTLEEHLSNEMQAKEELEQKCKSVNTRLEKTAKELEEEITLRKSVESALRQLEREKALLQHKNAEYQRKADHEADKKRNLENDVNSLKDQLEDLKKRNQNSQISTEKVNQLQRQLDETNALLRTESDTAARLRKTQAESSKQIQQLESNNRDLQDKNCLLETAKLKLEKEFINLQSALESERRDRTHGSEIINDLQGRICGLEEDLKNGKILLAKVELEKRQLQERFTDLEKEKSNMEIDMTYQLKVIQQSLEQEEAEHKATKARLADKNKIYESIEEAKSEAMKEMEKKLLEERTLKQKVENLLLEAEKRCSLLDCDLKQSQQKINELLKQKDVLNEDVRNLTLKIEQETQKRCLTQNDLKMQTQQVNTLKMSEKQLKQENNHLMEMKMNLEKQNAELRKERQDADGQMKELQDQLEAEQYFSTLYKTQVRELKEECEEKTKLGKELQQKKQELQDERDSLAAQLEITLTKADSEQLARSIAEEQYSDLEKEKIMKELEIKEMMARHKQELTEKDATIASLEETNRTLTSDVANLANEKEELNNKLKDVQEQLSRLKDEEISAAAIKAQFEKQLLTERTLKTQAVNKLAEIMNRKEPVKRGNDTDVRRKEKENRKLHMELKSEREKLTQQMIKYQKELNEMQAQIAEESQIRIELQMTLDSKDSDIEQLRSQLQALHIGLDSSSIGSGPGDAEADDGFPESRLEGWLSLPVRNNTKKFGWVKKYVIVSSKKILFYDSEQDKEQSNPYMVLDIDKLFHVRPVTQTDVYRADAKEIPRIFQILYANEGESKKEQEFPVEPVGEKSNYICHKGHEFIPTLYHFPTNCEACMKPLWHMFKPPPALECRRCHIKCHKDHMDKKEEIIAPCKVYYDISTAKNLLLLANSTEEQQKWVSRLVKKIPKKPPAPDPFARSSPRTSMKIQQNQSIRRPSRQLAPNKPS
Chain of Rho kinase 1 (ROCK-I) (Q13464 whole entry): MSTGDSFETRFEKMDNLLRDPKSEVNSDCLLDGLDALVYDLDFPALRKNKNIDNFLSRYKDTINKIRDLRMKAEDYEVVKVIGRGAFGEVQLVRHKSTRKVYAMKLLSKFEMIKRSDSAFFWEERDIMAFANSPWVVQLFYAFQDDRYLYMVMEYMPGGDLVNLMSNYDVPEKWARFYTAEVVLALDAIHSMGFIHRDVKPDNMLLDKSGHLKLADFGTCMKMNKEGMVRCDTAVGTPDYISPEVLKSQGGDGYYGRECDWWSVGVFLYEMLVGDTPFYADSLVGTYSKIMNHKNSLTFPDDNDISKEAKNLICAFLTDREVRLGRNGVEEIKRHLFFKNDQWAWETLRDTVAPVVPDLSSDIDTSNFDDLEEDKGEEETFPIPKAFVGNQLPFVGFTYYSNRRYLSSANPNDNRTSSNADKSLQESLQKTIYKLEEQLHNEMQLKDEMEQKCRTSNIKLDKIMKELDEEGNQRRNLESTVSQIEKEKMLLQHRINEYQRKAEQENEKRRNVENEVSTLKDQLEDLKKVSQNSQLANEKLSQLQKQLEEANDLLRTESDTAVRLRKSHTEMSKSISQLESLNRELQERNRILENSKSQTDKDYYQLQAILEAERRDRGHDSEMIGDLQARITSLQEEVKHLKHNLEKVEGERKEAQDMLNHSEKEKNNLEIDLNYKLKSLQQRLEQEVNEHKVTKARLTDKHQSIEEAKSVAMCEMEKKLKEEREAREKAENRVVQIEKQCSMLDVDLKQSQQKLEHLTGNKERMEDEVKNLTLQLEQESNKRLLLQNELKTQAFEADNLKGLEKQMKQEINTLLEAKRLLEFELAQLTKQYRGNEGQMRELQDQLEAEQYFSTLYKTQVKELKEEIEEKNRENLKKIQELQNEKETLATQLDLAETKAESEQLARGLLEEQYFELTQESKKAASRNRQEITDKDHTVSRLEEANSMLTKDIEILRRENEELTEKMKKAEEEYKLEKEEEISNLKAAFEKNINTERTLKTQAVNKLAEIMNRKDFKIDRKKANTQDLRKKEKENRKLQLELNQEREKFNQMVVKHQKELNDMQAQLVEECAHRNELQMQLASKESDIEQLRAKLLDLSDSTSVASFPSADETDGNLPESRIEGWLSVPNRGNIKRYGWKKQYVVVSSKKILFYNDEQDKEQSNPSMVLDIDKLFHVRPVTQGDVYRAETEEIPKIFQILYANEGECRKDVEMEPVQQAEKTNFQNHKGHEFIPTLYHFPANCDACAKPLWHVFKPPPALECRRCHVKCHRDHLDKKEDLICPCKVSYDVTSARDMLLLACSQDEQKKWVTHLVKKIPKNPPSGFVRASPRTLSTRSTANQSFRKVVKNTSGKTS

Cc1c[nH]c2nccc(Oc3ccc(CC(N)C(=O)NCCc4ccncc4)cc3F)c12 (single isomer, unassigned) [Example 57A, 2-amino-3-(3-fluoro-4-((3-methyl-1H-pyrrolo[2,3-b]pyridin-4-yl)oxy)phenyl)-N-(2-(pyridin-4-yl)ethyl)propanamide]
Ki [1]: 3 to 30 nM
Ki [2]: < 3 nM

CN(C)CCNC(=O)C(Cc1ccc(Oc2ccnc3[nH]ccc23)cc1)NC(=O)C1CCCCC1 (stereo not drawn) [Example 181, N-(3-(4-((1H-pyrrolo[2,3-b]pyridin-4-yl)oxy)phenyl)-1-((2-(dimethylamino)ethyl)amino)-1-oxopropan-2-yl)cyclohexanecarboxamide]
Ki [1]: > 30 nM
Ki [2]: > 30 nM

Cc1c[nH]c2nccc(Oc3ccc(C[C@H](N)C(=O)NCC4CCN(C)CC4)cc3F)c12 [Example 40, (S)-2-amino-3-(3-fluoro-4-((3-methyl-1H-pyrrolo[2,3-b]pyridin-4-yl)oxy)phenyl)-N-((1-methylpiperidin-4-yl)methyl)propanamide]
Ki [1]: 3 to 30 nM
Ki [2]: < 3 nM

Cc1c[nH]c2nccc(Oc3ccc(CC(N)C(=O)N4CCN(C5CC5)CC4)cc3F)c12 (stereo not drawn) [Example 60, 2-amino-1-(4-cyclopropylpiperazin-1-yl)-3-(3-fluoro-4-((3-methyl-1H-pyrrolo[2,3-b]pyridin-4-yl)oxy)phenyl)propan-1-one]
Ki [1]: < 3 nM
Ki [2]: < 3 nM

Cc1c[nH]c2nccc(Oc3ccc(C[C@H](N)C(=O)NC4(CN(C)C)CCCCC4)cc3F)c12 [Example 38, (S)-2-amino-N-(1-((dimethylamino)methyl)cyclohexyl)-3-(3-fluoro-4-((3-methyl-1H-pyrrolo[2,3-b]pyridin-4-yl)oxy)phenyl)propanamide]
Ki [1]: < 3 nM
Ki [2]: < 3 nM

Cc1c[nH]c2nccc(Oc3ccc(CC(N)C(=O)N4CCN(C)CC4CO)cc3F)c12 (stereo not drawn) [Example 64, 2-amino-3-(3-fluoro-4-((3-methyl-1H-pyrrolo[2,3-b]pyridin-4-yl)oxy)phenyl)-1-(2-(hydroxymethyl)-4-methylpiperazin-1-yl)propan-1-one]
Ki [1]: 3 to 30 nM
Ki [2]: < 3 nM

Cn1cncc1-c1c[nH]c2nccc(Oc3ccc(C[C@H](N)C(=O)N4CCN(Cc5ccccc5)CC4)cc3)c12 [Example 197, (S)-2-amino-1-(4-benzylpiperazin-1-yl)-3-(4-((3-(1-methyl-1H-imidazol-5-yl)-1H-pyrrolo[2,3-b]pyridin-4-yl)oxy)phenyl)propan-1-one]
Ki [1]: < 3 nM
Ki [2]: < 3 nM

Cc1c[nH]c2nccc(Oc3ccc(C[C@H](N)C(=O)N4CCN(C(=O)c5ccccc5)CC4)cc3F)c12 [Example 167, (S)-2-amino-1-(4-benzoylpiperazin-1-yl)-3-(3-fluoro-4-((3-methyl-1H-pyrrolo[2,3-b]pyridin-4-yl)oxy)phenyl)propan-1-one]
Ki [1]: < 3 nM
Ki [2]: < 3 nM

N[C@@H](Cc1ccc(Oc2ccnc3[nH]cc(CO)c23)c(F)c1)C(=O)NC1CCCCC1 [Example 208, (S)-2-amino-N-cyclohexyl-3-(3-fluoro-4-((3-(hydroxymethyl)-1H-pyrrolo[2,3-b]pyridin-4-yl)oxy)phenyl)-propanamide]
Ki [1]: < 3 nM
Ki [2]: < 3 nM

Cc1c[nH]c2nccc(Oc3ccc(CC(N)C(=O)N4CCn5cncc5C4)cc3F)c12 (stereo not drawn) [Example 81, 2-amino-1-(5,6-dihydroimidazo[1,5-a]pyrazin-7(8H)-yl)-3-(3-fluoro-4-((3-methyl-1H-pyrrolo[2,3-b]pyridin-4-yl)oxy)phenyl)propan-1-one]
Ki [1]: < 3 nM
Ki [2]: < 3 nM

N[C@@H](Cc1ccc(Oc2ccnc3[nH]cc(C4=CCOC4)c23)cc1)C(=O)N1CCN(Cc2ccccc2)CC1 [Example 201, (S)-2-amino-1-(4-benzylpiperazin-1-yl)-3-(4-((3-(2,5-dihydrofuran-3-yl)-1H-pyrrolo[2,3-b]pyridin-4-yl)oxy)phenyl)propan-1-one]
Ki [1]: < 3 nM
Ki [2]: < 3 nM

N[C@H](Cc1ccc(Oc2ccnc3[nH]ccc23)cc1)C(=O)NCC1CCCCC1 [Example 108, (R)-3-(4-((1H-pyrrolo[2,3-b]pyridin-4-yl)oxy)phenyl)-2-amino-N-(cyclohexylmethyl)propanamide]
Ki [1]: 3 to 30 nM
Ki [2]: 3 to 30 nM

Cc1c[nH]c2nccc(Oc3ccc(C[C@H](N)C(=O)N4CCNCC4)cc3F)c12 [Example 152, (S)-2-amino-3-(3-fluoro-4-((3-methyl-1H-pyrrolo[2,3-b]pyridin-4-yl)oxy)phenyl)-1-(piperazin-1-yl)propan-1-one]
Ki [1]: < 3 nM
Ki [2]: < 3 nM

N[C@@H](Cc1ccc(Oc2ccnc3[nH]ccc23)cc1)C(=O)Nc1ccc(Cl)nc1 [Example 94, (S)-3-(4-((1H-pyrrolo[2,3-b]pyridin-4-yl)oxy)phenyl)-2-amino-N-(6-chloropyridin-3-yl)propanamide]
Ki [1]: < 3 nM
Ki [2]: < 3 nM

NC(Cc1ccc(Oc2ccnc3[nH]ccc23)cc1)C(=O)Nc1ccc(C(F)(F)F)cc1 (single isomer, unassigned) [Example 91A, 3-(4-((1H-pyrrolo[2,3-b]pyridin-4-yl)oxy)phenyl)-2-amino-N-(4-(trifluoromethyl)phenyl)propanamide]
Ki [1]: < 3 nM
Ki [2]: < 3 nM

CN(C)CCCNC(=O)[C@@H](N)Cc1ccc(Oc2ccnc3[nH]cc(CO)c23)c(F)c1 [Example 212, (S)-2-amino-N-(3-(dimethylamino)-propyl)-3-(3-fluoro-4-((3-(hydroxymethyl)-1H-pyrrolo[2,3-b]pyridin-4-yl)oxy)phenyl)propanamide]
Ki [1]: 3 to 30 nM
Ki [2]: 3 to 30 nM

Cc1c[nH]c2ncnc(Oc3ccc(C[C@H](N)C(=O)N4CCC(Oc5cccnc5)CC4)cc3F)c12 [Example 126, (S)-2-amino-3-(3-fluoro-4-((5-methyl-7H-pyrrolo[2,3-d]pyrimidin-4-yl)oxy)phenyl)-1-(4-(pyridin-3-yloxy)piperidin-1-yl)propan-1-one]
Ki [1]: 3 to 30 nM
Ki [2]: 3 to 30 nM

CC(N)(Cc1ccc(Oc2ccnc3[nH]ccc23)cc1)C(=O)NC1CCCCC1 (stereo not drawn) [Example 150, 3-(4-((1H-pyrrolo[2,3-b]pyridin-4-yl)oxy)phenyl)-2-amino-N-cyclohexyl-2-methylpropanamide]
Ki [1]: 3 to 30 nM
Ki [2]: 3 to 30 nM

Cc1c[nH]c2nccc(Oc3ccc(CC(N)C(=O)N4CCN(Cc5ccc6c(c5)OCO6)CC4)cc3F)c12 (stereo not drawn) [Example 52, 2-amino-1-(4-(benzo[d][1,3]dioxol-5-ylmethyl)piperazin-1-yl)-3-(3-fluoro-4-((3-methyl-1H-pyrrolo[2,3-b]pyridin-4-yl)oxy)phenyl)propan-1-one]
Ki [1]: < 3 nM
Ki [2]: < 3 nM

Cc1c[nH]c2nccc(Oc3ccc(C[C@@H](N)C(=O)NC4CCCCC4)cc3)c12 [Example 142, (R)-2-amino-N-cyclohexyl-3-(4-((3-methyl-1H-pyrrolo[2,3-b]pyridin-4-yl)oxy)phenyl)propanamide]
Ki [1]: 3 to 30 nM
Ki [2]: 3 to 30 nM

N#Cc1ccc(-c2c[nH]c3nccc(Oc4ccc(C[C@H](N)C(=O)N5CCN(Cc6ccccc6)CC5)cc4)c23)s1 [Example 195, (S)-5-(4-(4-(2-amino-3-(4-benzylpiperazin-1-yl)-3-oxopropyl)phenoxy)-1H-pyrrolo[2,3-b]pyridin-3-yl)thiophene-2-carbonitrile]
Ki [1]: < 3 nM
Ki [2]: < 3 nM
